Measured values as given in PMC7771853, “Differential effects of novel kappa opioid receptor antagonists on dopamine neurons using acute brain slice electrophysiology” (PLoS ONE, 2020).

What was measured:
VTA neurons = assay: Wash in of antagonist: change in Iholding in VTA neurons; assay type: cell-based, rat; settings: for change in Iholding on wash in: across the concentrations tested
KOR = test system: KOR; design: method as in PMID 21832171; settings: cited from earlier work

CCc1ccc2nc(N3CCC(NCC4(C)COC4)CC3)c(-c3nc(C)no3)cc2c1 [BTRX-395750]
change in Iholding on wash in (VTA neurons): means very close to zero

Cc1cc(C)cc([C@@H]2CCCN2Cc2ccc(Oc3ccc(C(N)=O)cc3F)cc2)c1 [JNJ-67953964, (S)-3-fluoro-4-(4-((2-(3,5-dimethylphenyl)pyrrolidin-1-yl)methyl)phenoxy)benzamide]
neurons with possible inward current on wash in (VTA neurons; 10 nM antagonist): 3 of 13

CCc1cc(F)c2nc(N3CCC(NC4CCOCC4)CC3)c(-c3nc(C)no3)c(C)c2c1 [BTRX-335140, 1-(6-ethyl-8-fluoro-4-methyl-3-(3-methyl-1,2,4-oxadiazol-5-yl)quinolin-2-yl)-N-(tetrahydro-2H-pyran-4-yl)piperidin-4 amine]
change in Iholding on wash in (VTA neurons): means very close to zero

CC(C)CNCc1ccc(-c2ccccc2S(=O)(=O)N2CCCC2)cc1 [PF-04455242, 2-methyl-N-((2'-(pyrrolidin-1-ylsulfonyl)biphenyl-4-yl)methyl)propan-1-amine]
extracellular signal-regulated kinase (ERK) phosphorylation (KOR; HEK293 cells expressing KOR ref 21): did not generate | c-Jun N terminal kinase (JNK) phosphorylation (KOR; HEK293 cells expressing KOR, compared to other KOR antagonists ref 21): minimal | neurons with outward current independent of KOR activation (VTA neurons; 1 μM antagonist): 3/8
